The assay has as its target glycoprotein B (gB) (Human alphaherpesvirus 1 strain 17, UniProt P10211). In words: surface plasmon resonance. Type of assay: binding.

SMILES strings stand for the structures. pKd: −log10 of the molar value.

On to `C=C1CC/C=C(\C)CC[C@@H]2[C@@H]1CC2(C)C` [BCP, β-caryophyllene], for which the negative logarithm of the Kd (pKd) is 5.37.

The values are drawn from publication PMC12239253 (BMC Complementary Medicine and Therapies, 2025).
